Experiments:
[1] = tested on: CST-2/3 cisplatin-resistant cells; test: Monoculture PrestoBlue cytotoxicity test, cisplatin-resistant CST-2/3; assay type: cell-based, mouse; settings: for RR_CST resistance ratio (IC50_CST-2/3 / IC50_CST): CST-2/3 vs CST; for IC50: monoculture, 120 h exposure, PrestoBlue
Description: (§1) CST, a drug-naïve murine breast cancer cell line, and cisplatin-resistant cells CST-2/3 were seeded in monoculture into 384-well plates (Corning Inc., Corning, NY, USA) at a density of 2500 cells per well using automated liquid-handling. The cells were preincubated for 24 h to ensure adherence, followed by the addition of serially diluted compounds to a final well volume of 60 µL. Following 120 h of continuous drug exposure, cell viability was quantified using the PrestoBlue viability assay (Thermo Fisher Scientific, Waltham, MA, USA) after 1 h incubation at 555 nm excitation and 585 nm emission wavelengths.
(§2) pIC50 values derived from both co- and monoculture systems were determined by a custom program written in C# [25], then average and standard deviations were calculated and transformed to IC50 values. Every compound was tested in at least 3 independent experiments in triplicates.

[2] = tested on: CST murine breast cancer cell line; test: Monoculture PrestoBlue cytotoxicity test, CST; assay type: cell-based, mouse; settings: 120 h exposure
Description: as §1, §2

[3] = tested on: MSCL-1 mesenchymal stem cell-like cell line; test: PrestoBlue cytotoxicity test, non-malignant MSCL-1; assay type: cell-based, human; settings: for IC50: 72 h treatment, PrestoBlue; for MSCL-1 / CST ratio (IC50_MSCL-1/IC50_cancer line): MSCL-1 vs CST; for MSCL-1 / Mes-Sa ratio (IC50_MSCL-1/IC50_cancer line): MSCL-1 vs Mes-Sa
Description: The MSCL-1 line was seeded on 96-well plates with 15,000 cells/well density, and the following day, it was treated with the compounds for 72 h, when cell viability was assessed using a PrestoBlue viability assay.
as §2

Mes-Sa/Dx5 eGFP = test: Triple coculture fluorescence cytotoxicity test, doxorubicin-selected MDR line; assay type: cell-based, human; settings: for RR_Dx5 resistance ratio (IC50_MDR line / IC50_parental line) of Mes-Sa/Dx5: Mes-Sa/Dx5 vs Mes-Sa; for IC50: triple coculture, 144 h incubation, fluorescence readout
Description: (§3) All synthesized complexes and representatives of the respective ligands (Lb, Lc, SIPr, IPr) were tested in a triple coculture of uterine sarcoma cell lines, consisting of the parental Mes-Sa cell line, and its MDR derivatives Mes-Sa/B1 and Mes-Sa/Dx5, transfected or selected in doxorubicin to overexpress P-glycoprotein, respectively (Figure 2a–c, Table S2). Each cell line expresses a distinct fluorescent protein (mCherry, mOrange, and eGFP, respectively), and the total fluorescence of a well is proportional to the cell number, allowing the assessment of compound cytotoxicity.
(§4) In a triple coculture system, cell lines expressing different fluorescent proteins were seeded in the same well. Cell lines (Mes-Sa mCherry, Mes-Sa/B1 mOrange, Mes-Sa/Dx5 eGFP [25]) were admixed and seeded on 384-well plates at a density of 3 × 800 cells/well (1:1:1 ratio), resulting in an overall total of 2400 cells. The next day, serially diluted compounds were added to the wells. Liquid handling was managed by a Hamilton StarLet pipetting robot. After 144 h of incubation, the fluorescence of mCherry (ex/em: 585/610 nm), mOrange (ex/em: 545/567 nm) and eGFP (ex/em: 485/510 nm) was recorded with an EnSpire plate reader (PerkinElmer, Waltham, MA, USA).
as §2

Mes-Sa/B1 mOrange = test: Triple coculture fluorescence cytotoxicity test, ABCB1-transfected MDR line; assay type: cell-based, human; settings: for RR_B1 resistance ratio (IC50_MDR line / IC50_parental line) of Mes-Sa/B1: Mes-Sa/B1 vs Mes-Sa; for IC50: triple coculture, 144 h incubation, fluorescence readout
Description: as §3, §4, §2

[4] = tested on: Mes-Sa mCherry uterine sarcoma cell line; test: Triple coculture fluorescence cytotoxicity test, parental line; assay type: cell-based, human; settings: 144 h incubation, fluorescence readout
Description: as §3, §4, §2

Mes-Sa cells = test: H2DCFDA intracellular ROS assay in Mes-Sa; assay type: cell-based, human; settings: 25 µM, 4 h incubation; for increase in intracellular ROS: vs 0 h
Description: (§5) Intracellular ROS production was assessed by the H2DCFDA—Cellular ROS Assay Kit (ab113851, Abcam, Cambridge, UK) according to the manufacturer’s instructions. Briefly, 20,000 cells (Mes-Sa and CST) were seeded on 96-well plates 1 day prior to the experiment. The cells were washed and incubated with H2DCFDA solution for 45 min in the dark. Following an additional washing step, test compounds were added in complete, phenol red free medium (FluoroBrite™, Thermo Fisher Scientific), at a final concentration of 25 µM. Fluorescence of 2′,7′-dichlorofluorescein (DCF) was measured at 484 nm/535 nm excitation/emission wavelengths. Data were normalized to baseline (0 h) values and represent at least three independent experiments.

CST cells = test: H2DCFDA intracellular ROS assay in CST; assay type: cell-based, mouse; settings: 25 µM, 4 h incubation; for increase in intracellular ROS: vs 0 h
Description: as §5

| SMILES | RR_CST resistance ratio (IC50_CST-2/3 / IC50_CST) [1] | IC50 [1] | IC50 [2] | IC50 [3] | MSCL-1 / CST ratio (IC50_MSCL-1/IC50_cancer line) [3] | MSCL-1 / Mes-Sa ratio (IC50_MSCL-1/IC50_cancer line) [3] | RR_Dx5 resistance ratio (IC50_MDR line / IC50_parental line) of Mes-Sa/Dx5 (Mes-Sa/Dx5 eGFP) | IC50 (Mes-Sa/Dx5 eGFP) | RR_B1 resistance ratio (IC50_MDR line / IC50_parental line) of Mes-Sa/B1 (Mes-Sa/B1 mOrange) | IC50 (Mes-Sa/B1 mOrange) | IC50 [4] | intracellular ROS induction compared to serum-containing medium (in words) (Mes-Sa cells) | further results |
| --- | --- | --- | --- | --- | --- | --- | --- | --- | --- | --- | --- | --- | --- |
| N.N.[Cl][Pt][Cl] [Cisplatin] | 5.5 | 820 nM | 150 nM | 17000 nM | 113.6 | 6.8 | 2.3 | 5910 nM | 0.8 | 2130 nM | 2520 nM | – | – |
| CC(C)c1cccc(C(C)C)c1N1[C](=[Au][Cl])N([C@@H](C)c2ccccc2)C[C@@H]1C(C)(C)C [Compound 3b] | 1.1 | 25100 nM | 22900 nM | – | – | – | 1.6 | 9920 nM | 2.4 | 14800 nM | 6170 nM | – | – |
| CC(C)c1cccc(C(C)C)c1N1[C](=[Au][Cl])N([C@@H](C)c2cccc3ccccc23)C[C@@H]1C(C)(C)C [Compound 3d] | 1.4 | 8380 nM | 6170 nM | – | – | – | 2.5 | 19400 nM | 2.8 | 21900 nM | 7810 nM | – | – |
| C=C[CH2][Pd]([Cl])=[C]1N([C@H](C)c2ccccc2)C[C@H](C(C)(C)C)N1c1c(C(C)C)cccc1C(C)C [Compound 4c] | 1.2 | 1350 nM | 1100 nM | – | – | – | 4.3 | 10100 nM | 2.4 | 5620 nM | 2340 nM | – | – |
| CC(C)c1cccc(C(C)C)c1N1CCN(c2c(C(C)C)cccc2C(C)C)[C]1=[Cu][Cl] [Compound 5a] | 1.5 | 270 nM | 180 nM | 1150 nM | 6.5 | 2.7 | 1.0 | 430 nM | 1.0 | 440 nM | 420 nM | – | increase in intracellular ROS (Mes-Sa cells): 72%; increase in intracellular ROS (CST cells): 88% |
| CC(C)c1cccc(C(C)C)c1N1CCN(c2c(C(C)C)cccc2C(C)C)[C]1=[Ag][Cl] [Compound 6a] | 1.7 | 880 nM | 530 nM | 1240 nM | 2.3 | 2.0 | 1.5 | 890 nM | 1.6 | 980 nM | 610 nM | did not significantly induce | increase in intracellular ROS (CST cells): 107% |
| CC(C)c1cccc(C(C)C)c1N1CCN(c2c(C(C)C)cccc2C(C)C)[C]1=[Au][Cl] [Compound 7a] | 1.0 | 12600 nM | 12200 nM | 25700 nM | 2.1 | 3.0 | 2.2 | 18500 nM | 1.7 | 14400 nM | 8450 nM | did not significantly induce | intracellular ROS induction compared to untreated control (in words) (CST cells): No significant ROS induction |
| C=C[CH2][Pd]([Cl])=[C]1N(c2c(C(C)C)cccc2C(C)C)CCN1c1c(C(C)C)cccc1C(C)C [Compound 8a] | 1.3 | 2000 nM | 1520 nM | 2980 nM | 2.0 | 1.1 | 2.2 | 5960 nM | 2.0 | 5250 nM | 2680 nM | – | – |
| CC(C)c1cccc(C(C)C)c1N1CCN(c2c(C(C)C)cccc2C(C)C)[C]1=[Cu+]=[C]1N(c2c(C(C)C)cccc2C(C)C)CCN1c1c(C(C)C)cccc1C(C)C.F[B-](F)(F)F [Compound 9a] | 2.2 | 240 nM | 110 nM | 810 nM | 7.3 | 11.2 | 14.3 | 1040 nM | 11.6 | 840 nM | 72 nM | – | increase in intracellular ROS (Mes-Sa cells): 99%; increase in intracellular ROS (CST cells): 61% |
| CC(C)c1cccc(C(C)C)c1N1CCN(c2c(C(C)C)cccc2C(C)C)[C]1=[Ag+]=[C]1N(c2c(C(C)C)cccc2C(C)C)CCN1c1c(C(C)C)cccc1C(C)C.F[B-](F)(F)F [Compound 10a] | 2.4 | 218 nM | 92 nM | 560 nM | 6.1 | 15.7 | 162.2 | 5790 nM | 79.5 | 2840 nM | 36 nM | did not significantly induce | intracellular ROS induction compared to untreated control (in words) (CST cells): No significant ROS induction |
| CC(C)c1cccc(C(C)C)c1N1C=[N+]([C@@H](C)c2ccccc2)C[C@@H]1C(C)(C)C [Lb] | 2.0 | – | – | – | – | – | 26.1 | – | 22.7 | – | – | – | IC50 ([1]; Mus musculus): 9690 nM; IC50 ([2]; Mus musculus): 4950 nM; IC50 (Mes-Sa/Dx5 eGFP; Homo sapiens, MES-SA/Dx5): 47900 nM; IC50 (Mes-Sa/B1 mOrange; Homo sapiens, MES-SA): 41700 nM; IC50 ([4]; Homo sapiens, MES-SA): 1830 nM |
| CC(C)c1cccc(C(C)C)c1N1C=[N+](c2c(C(C)C)cccc2C(C)C)CC1 [SIPr, reference compound] | 3.4 | – | – | – | 2.0 | 2.3 | 20.9 | – | 10.9 | – | – | did not significantly induce | intracellular ROS induction compared to untreated control (in words) (CST cells): No significant ROS induction; IC50 ([1]; Mus musculus): 20300 nM; IC50 ([2]; Mus musculus): 5920 nM; IC50 ([3]; Homo sapiens): 11700 nM; IC50 (Mes-Sa/Dx5 eGFP; Homo sapiens, MES-SA/Dx5): 106000 nM; IC50 (Mes-Sa/B1 mOrange; Homo sapiens, MES-SA): 55000 nM; IC50 ([4]; Homo sapiens, MES-SA): 5050 nM |
